{"source": "paper PMC3592791", "about": "“Fluorescence-Based High-Throughput Functional Profiling of Ligand-Gated Ion Channels at the Level of Single Cells” (PLoS ONE, 2013)", "key": {"α1 GlyR": {"molecular_target": "T1, α1 GlyR (Homo sapiens, UniProt P23415)", "T1 construct": "expressed in transfected cells; host or cells: HEK293", "T1 sequence (P23415 29-457)": "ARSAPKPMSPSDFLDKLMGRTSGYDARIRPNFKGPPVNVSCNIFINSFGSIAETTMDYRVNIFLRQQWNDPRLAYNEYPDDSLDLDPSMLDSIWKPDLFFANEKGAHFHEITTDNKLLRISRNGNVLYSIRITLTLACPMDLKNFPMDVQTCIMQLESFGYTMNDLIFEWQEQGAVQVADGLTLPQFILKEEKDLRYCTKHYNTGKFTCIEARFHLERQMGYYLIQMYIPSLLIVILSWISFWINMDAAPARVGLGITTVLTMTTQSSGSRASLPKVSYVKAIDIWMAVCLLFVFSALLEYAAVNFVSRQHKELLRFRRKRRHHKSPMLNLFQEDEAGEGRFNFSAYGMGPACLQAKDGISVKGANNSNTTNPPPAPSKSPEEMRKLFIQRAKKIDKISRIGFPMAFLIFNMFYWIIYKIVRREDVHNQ", "assay_type": "cell-based", "procedure": "(§1) plated into 60-mm culture dishes and were transfected when approx. 80% confluent. YFP and GlyR chloride channel subunits were transfected in 1∶1 (YFP and α1-3 GlyR homomers) or 2∶1∶1 ratio (YFP, GlyR α1-3 homo and α1-3β GlyR heteromers) with a total cDNA quantity of 1 µg. Cells were transfected using calcium phosphate precipitation transfection technique, as described in Sambrook et al.. […] We have published a detailed comparison of five transient transfection methods employed routinely in the laboratory for this purpose.\n(§2) The human α1, α2 and α3 GlyR plasmid DNAs were subcloned into the pcDNA3.1 plasmid vector and the human β subunit plasmid DNA was subcloned into pIRES2-EGFP plasmid vector. The UniprotKB accession numbers for the DNAs are as follows (with gene name in brackets): α1 (GLRA1): P23415, α2 (GLRA2): P23416, α3 (GLRA3): O75311 and β(GLRB): P48167.\n(§3) Following termination of transfection, cells were trypsinized by adding 0.7 mL of 0.25% trypsin–EDTA solution (Gibco BRL), resuspended into DMEM, and 2.5×10^3 cells, suspended in 40 µL DMEM, were plated into each well of a transparent 384-well plate for fluorescence imaging experiments. Cells were used in experiments 24 h later. Individual wells typically contained 5×10^3 cells at the time of the experiment. Approximately 1 h prior to commencement of experiments culture media in 384-well plates were removed by turning the plate upside-down onto a stack of tissue and were left for approximately 30 sec until culture media was entirely removed from the wells. The culture media was replaced by 20 µL standard control solution, which contained (in mM) NaCl 140, KCl 5, CaCl2 2, MgCl2 1, HEPES 10, and glucose 10 (pH 7.4) using NaOH. […] For drug screening experiments agonist solutions were supplemented with strychnine (10, 30, 100 µM), picrotoxin (10, 100 µM) and lindane (10, 100 µM) respectively. Drugs were diluted from stocks in agonist solution according to desired final concentrations. […] Experiments were conducted at room temperature (19–22°C).\n(§4) The maximum image acquisition rate was 1.25 Hz. Solutions containing agonist and drug were pipetted into a 384-well plate and placed onto LC PAL sample holder platform. Liquid handling was performed with the autosampler described above. Solutions were applied to cells at a rate of 0.6 ml/min.\n(§5) Images of fluorescent cells were segmented and quantitatively analyzed using a modified version of DetecTIFF® software. In brief, images were segmented using an iterative size and intensity-based thresholding algorithm and the fluorescence signal of identified cells was calculated as the mean of all pixel values within the area of a cell.\n(§6) This VI uses the Levenberg-Marquardt algorithm to determine the set of parameters that best fit the set of input data points (X, Y) as expressed by the nonlinear function: [drawing 1] where a is the set of parameters. The curve model is defined by the following equation: […]"}, "α2 GlyR [1]": {"molecular_target": "T2, α2 GlyR (Homo sapiens, UniProt P23416)", "T2 construct": "expressed in transfected cells; host or cells: HEK293", "T2 sequence (P23416 28-452)": "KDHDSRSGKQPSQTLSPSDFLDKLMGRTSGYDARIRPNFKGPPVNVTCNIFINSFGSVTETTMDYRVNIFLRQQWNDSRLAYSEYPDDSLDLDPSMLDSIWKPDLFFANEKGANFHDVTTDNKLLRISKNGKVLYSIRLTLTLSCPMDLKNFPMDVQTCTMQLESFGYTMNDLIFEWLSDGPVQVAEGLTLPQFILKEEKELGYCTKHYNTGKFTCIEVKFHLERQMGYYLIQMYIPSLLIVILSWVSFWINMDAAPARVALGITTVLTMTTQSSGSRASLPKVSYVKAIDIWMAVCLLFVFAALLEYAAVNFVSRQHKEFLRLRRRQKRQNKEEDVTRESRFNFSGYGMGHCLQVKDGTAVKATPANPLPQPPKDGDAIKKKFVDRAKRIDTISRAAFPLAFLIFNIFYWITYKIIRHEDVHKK", "assay_type": "cell-based", "procedure": "as §1, §2, §3, §4, §5, §6"}, "α3 GlyR [2]": {"molecular_target": "T3, α3 GlyR (Homo sapiens, UniProt O75311)", "T3 sequence (O75311 34-464)": "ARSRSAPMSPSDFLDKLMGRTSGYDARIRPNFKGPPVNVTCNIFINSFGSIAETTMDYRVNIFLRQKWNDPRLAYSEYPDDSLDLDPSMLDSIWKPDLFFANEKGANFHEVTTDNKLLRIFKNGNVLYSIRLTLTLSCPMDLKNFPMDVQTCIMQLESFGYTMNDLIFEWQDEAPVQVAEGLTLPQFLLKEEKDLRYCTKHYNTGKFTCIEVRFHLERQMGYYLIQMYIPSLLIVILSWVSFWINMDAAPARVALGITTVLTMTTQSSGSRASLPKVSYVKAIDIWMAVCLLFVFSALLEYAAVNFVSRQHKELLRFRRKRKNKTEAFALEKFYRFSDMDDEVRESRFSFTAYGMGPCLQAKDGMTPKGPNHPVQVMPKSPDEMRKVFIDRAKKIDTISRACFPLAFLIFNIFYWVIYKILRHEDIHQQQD", "settings": "Fig. 3A", "quoted_text": "plated into 60-mm culture dishes and were transfected when approx. 80% confluent. YFP and GlyR chloride channel subunits were transfected in 1∶1 (YFP and α1-3 GlyR homomers) or 2∶1∶1 ratio (YFP, GlyR α1-3 homo and α1-3β GlyR heteromers) with a total cDNA quantity of 1 µg. Cells were transfected using calcium phosphate precipitation transfection technique, as described in Sambrook et al. [37]. Transfection efficiency varies from 20 to 60%. We routinely achieve a correlation of 80 to 90% between cells expressing YFP and cells expressing GlyRs.\nFollowing termination of transfection, cells were trypsinized by adding 0.7 mL of 0.25% trypsin–EDTA solution (Gibco BRL), resuspended into DMEM, and 2.5×10^3 cells, suspended in 40 µL DMEM, were plated into each well of a transparent 384-well plate for fluorescence imaging experiments. Cells were used in experiments 24 h later. Individual wells typically contained 5×10^3 cells at the time of the experiment. Approximately 1 h prior to commencement of experiments culture media in 384-well plates were removed by turning the plate upside-down onto a stack of tissue and were left for approximately 30 sec until culture media was entirely removed from the wells. […]\n(§9) Images of fluorescent cells were segmented and quantitatively analyzed using a modified version of DetecTIFF® software [40]. In brief, images were segmented using an iterative size and intensity-based thresholding algorithm and the fluorescence signal of identified cells was calculated as the mean of all pixel values within the area of a cell.\n• Goodness of fit (R^2, ≥0.9), to include curve fits that represent the data points to a high degree. • Dynamic range of fluorescence change (ΔF, 20–100%), to include cells co-expressing both, YFPI152L and GlyRs.\nFilter ranges for enrichment of functional data were determined empirically by biological relevance."}, "α3β GlyR [3]": {"molecular_target": "T4, α3β GlyR (Homo sapiens, UniProt O75311+P48167)", "T4 sequence (P48167 23-497, one chain of several)": "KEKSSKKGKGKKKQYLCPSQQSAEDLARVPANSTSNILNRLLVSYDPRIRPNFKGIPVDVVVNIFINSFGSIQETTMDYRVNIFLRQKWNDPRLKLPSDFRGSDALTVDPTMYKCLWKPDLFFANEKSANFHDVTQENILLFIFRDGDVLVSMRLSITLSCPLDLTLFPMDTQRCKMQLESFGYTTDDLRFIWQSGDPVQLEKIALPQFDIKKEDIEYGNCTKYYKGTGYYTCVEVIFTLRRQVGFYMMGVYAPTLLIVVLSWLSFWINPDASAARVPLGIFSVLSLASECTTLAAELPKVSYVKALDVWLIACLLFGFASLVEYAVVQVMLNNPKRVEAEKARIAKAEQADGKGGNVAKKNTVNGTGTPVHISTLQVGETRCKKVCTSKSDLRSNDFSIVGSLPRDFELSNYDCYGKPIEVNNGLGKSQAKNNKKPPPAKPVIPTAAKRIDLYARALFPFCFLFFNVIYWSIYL", "settings": "read-out: Median half-maximal activation by glycine (EC50), control conditions; no drug, Fig. 4F, n = 122", "quoted_text": "plated into 60-mm culture dishes and were transfected when approx. 80% confluent. YFP and GlyR chloride channel subunits were transfected in 1∶1 (YFP and α1-3 GlyR homomers) or 2∶1∶1 ratio (YFP, GlyR α1-3 homo and α1-3β GlyR heteromers) with a total cDNA quantity of 1 µg. Cells were transfected using calcium phosphate precipitation transfection technique, as described in Sambrook et al. [37]. Transfection efficiency varies from 20 to 60%. We routinely achieve a correlation of 80 to 90% between cells expressing YFP and cells expressing GlyRs. […]\nFollowing termination of transfection, cells were trypsinized by adding 0.7 mL of 0.25% trypsin–EDTA solution (Gibco BRL), resuspended into DMEM, and 2.5×10^3 cells, suspended in 40 µL DMEM, were plated into each well of a transparent 384-well plate for fluorescence imaging experiments. […]\nas §9\n• Goodness of fit (R^2, ≥0.9), to include curve fits that represent the data points to a high degree. • Dynamic range of fluorescence change (ΔF, 20–100%), to include cells co-expressing both, YFPI152L and GlyRs. […]"}, "α2β GlyR [4]": {"molecular_target": "T5, α2β GlyR (Homo sapiens, UniProt P23416+P48167)", "T5 construct": "expressed in transfected cells; host or cells: HEK293", "T5 sequence (P48167 23-497, one chain of several)": "as above", "assay_type": "cell-based", "settings": "drugs at 10 and 100 µM, Fig. 6A", "procedure": "as §1, §2, §3, §4, §5, §6"}, "α2 GlyR [5]": {"molecular_target": "T2, α2 GlyR", "experiment": "Whole-cell patch-clamp electrophysiology, α2 GlyR", "assay_type": "cell-based", "settings": "read-out: % block of EC50 glycine current; 100 µM lindane, HEK293 cells, -40 mV, 4–7 cells, Fig. 5B", "procedure": "(§7) Cells were transfected as described above and plated onto glass coverslips in 3 cm culture dishes. Coverslips containing cells were placed in a recording chamber on the stage of an inverted fluorescent microscope and currents were recorded using the whole-cell patch-clamp configuration. Cells were perfused by extracellular solution containing (in mM): 140 NaCl, 5 KCl, 2 CaCl2, 1 MgCl2, 10 HEPES/NaOH and 10 glucose (pH 7.4 adjusted with NaOH). Patch pipettes were fabricated from borosilicate hematocrit tubing (Hirschmann Laborgeraete, Eberstadt, Germany) and heat polished. […] After establishment of the whole-cell recording configuration, cells were voltage clamped at −40 mV and membrane currents were recorded using an Axopatch 1D and pClamp 10 software (Molecular Devices). Currents were filtered at 500 Hz and digitized at 2 KHz.\n(§8) Because αsubunits can form functional receptors with or without β subunits, it was necessary to confirm that the expressed receptors incorporated β subunits. As the GlyR β subunit cDNA was cloned into the pIRES2-EGFP plasmid vector, we used green fluorescent protein fluorescence to identify cells transfected with the GlyR β subunit. The successful incorporation of β subunits into functional heteromeric GlyRs was also confirmed pharmacologically by their characteristic reduction in […] sensitivity as described below."}, "α2β GlyR [6]": {"molecular_target": "T5, α2β GlyR", "experiment": "Whole-cell patch-clamp electrophysiology, α2β GlyR", "assay_type": "cell-based", "settings": "read-out: % block of EC50 glycine current; 100 µM lindane, HEK293 cells, -40 mV, 4–7 cells, Fig. 5B", "procedure": "as §7, §8"}, "α3 GlyR [7]": {"molecular_target": "T3, α3 GlyR", "experiment": "Whole-cell patch-clamp electrophysiology, α3 GlyR", "assay_type": "cell-based", "design": "expressed in transfected cells; host or cells: HEK293", "settings": "read-out: % block of EC50 glycine current; 100 µM lindane, HEK293 cells, -40 mV, 4–7 cells, Fig. 5B", "procedure": "as §7, §8"}, "α3β GlyR [8]": {"molecular_target": "T4, α3β GlyR", "experiment": "Whole-cell patch-clamp electrophysiology, α3β GlyR", "assay_type": "cell-based", "design": "expressed in transfected cells; host or cells: HEK293", "settings": "read-out: % block of EC50 glycine current; 100 µM lindane, HEK293 cells, -40 mV, 4–7 cells, Fig. 5B", "procedure": "as §7, §8"}}, "data": [{"compound": "NCC(=O)O", "note": "[glycine]", "values": [{"measurement": "Slope value, averaged", "setting": "α1 GlyR", "result": "1.19±0.03"}, {"measurement": "Slope values, range over single cells", "setting": "α1 GlyR", "result": "0.47–1.92"}, {"measurement": "Slope value, averaged", "setting": "α2 GlyR [1]", "result": "2.92±0.09"}, {"measurement": "Slope values, range over single cells", "setting": "α2 GlyR [1]", "result": "0.51–4.73"}, {"measurement": "Slope value, averaged", "setting": "α3 GlyR [2]; glycine dose-response", "result": "0.91±0.03"}, {"measurement": "Slope values, range over single cells", "setting": "α3 GlyR [2]; glycine dose-response", "result": "0.39–3.43"}, {"measurement": "EC50", "setting": "α3 GlyR [2]; read-out: Averaged glycine EC50, HEK293 cells, individual well, n = 212 cells", "result": "186 ± 17", "unit": "µM"}, {"measurement": "EC50", "setting": "α3β GlyR [3]", "result": "46.8 ± 4", "unit": "µM"}]}, {"compound": "Cl[C@H]1[C@H](Cl)[C@@H](Cl)[C@@H](Cl)[C@H](Cl)[C@H]1Cl", "note": "[lindane, γ-hexachlorocyclohexane]", "values": [{"measurement": "Effect on receptor (color map of median glycine EC50)", "setting": "α2β GlyR [4]", "result": "no inhibition"}, {"measurement": "inhibition at 100 µM", "setting": "α2 GlyR [5]", "result": "94 ± 5", "unit": "%"}, {"measurement": "inhibition at 100 µM", "setting": "α2β GlyR [6]", "result": "23 ± 4", "unit": "%"}, {"measurement": "inhibition at 100 µM", "setting": "α3 GlyR [7]", "result": "96 ± 4", "unit": "%"}, {"measurement": "inhibition at 100 µM", "setting": "α3β GlyR [8]", "result": "14 ± 3", "unit": "%"}]}, {"compound": "O=C1C[C@@H]2OCC=C3CN4CC[C@]56c7ccccc7N1[C@H]5[C@H]2[C@H]3C[C@H]46", "note": "[strychnine]", "values": [{"measurement": "Effect on receptor (color map of median glycine EC50)", "setting": "α2β GlyR [4]", "result": "inhibition"}]}, {"compound": "picrotoxin", "values": [{"measurement": "Effect on receptor (color map of median glycine EC50)", "setting": "α2 GlyR [1]; drugs at 10 and 100 µM, Fig. 6A", "result": "overall less block of homomeric α2 GlyRs by picrotoxin compared to lindane"}, {"measurement": "Effect on receptor (color map of median glycine EC50)", "setting": "α2β GlyR [4]", "result": "no inhibition"}]}]}
